Measurements from patent US9523100B2, “Pesticidal compositions and related methods” (DOW AGROSCIENCES LLC, priority 2013, dated 2016).
Read-outs that look alike come from different tables or passages of the source.

Experiments:
[1] = tested on: Green Peach Aphid (GPA) (Myzus persicae) (MYZUPE); assay: Bioassay for Green Peach Aphid (GPA), foliar spray on cabbage seedlings; format: in vivo; conditions: 72 h, read-out: GPA 200 ppm, % Control (or Mortality) rating
Summary of the method: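 Cabbage seedlings infested with 20-50 GPA (wingless adults and nymphs) one day before spraying to runoff with 200 ppm compound; four pots per treatment. Live aphids counted after three days at ~25° C; percent control by Abbott's correction against solvent-sprayed plants.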

[2] = tested on: Sweetpotato Whitefly-Crawler (WF) (Bemisia tabaci) (BEMITA); assay: Insecticidal test for Sweetpotato Whitefly-Crawler (WF) in foliar spray assay on cotton plants; format: in vivo; conditions: 216 h, read-out: WF 200 ppm, % Control (or Mortality) rating
Summary of the method: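 Cotton plants carrying 200–400 whitefly eggs sprayed to run-off on both leaf surfaces at 200 ppm (acetone/0.025% Tween 20), four plants per treatment. After 9 days at about 25 °C, live 3rd–4th instar nymphs counted; Abbott-corrected percent control versus solvent check.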

[3] = 200 ppm foliar spray on cabbage seedlings, graded after three days, Abbott corrected % control
[4] = 200 ppm foliar spray on cotton plants, graded after 9 days, Abbott corrected % control

SMILES	mortality at 200 ppm [1, 3] [%]	mortality at 200 ppm [2, 4] [%]	mortality at 200 ppm ([1]; foliar) [%]	mortality at 200 ppm ([2]; foliar) [%]
CN(C(=O)CCN1CCCC1=O)c1cn(-c2cccnc2)nc1Cl [Compound F107, N-(3-Chloro-1-(pyridin-3-yl)-1H-pyrazol-4-yl)-N-methyl-3-(2-oxopyrrolidin-1-yl)propanamide]	80 to 100	80 to 100		
CCN(C(=O)C(C)N(C)C(=O)N(C)C)c1cn(-c2cccnc2)nc1Cl (stereo not drawn) [Compound F114, N-(3-Chloro-1-(pyridin-3-yl)-1H-pyrazol-4-yl)-N-ethyl-2-(1,3,3-trimethylureido)propanamide]	80 to 100	80 to 100		
CCN(C(=O)C1CCN(C(=O)C(F)(F)F)C1)c1cn(-c2cccnc2)nc1Cl (stereo not drawn) [FA9, N-(3-Chloro-1-(pyridin-3-yl)-1H-pyrazol-4-yl)-N-ethyl-1-(2,2,2-trifluoroacetyl)pyrrolidine-3-carboxamide]	80 to 100	< 0		
CCN(C(=O)C1CCCN(C(=O)CCC#N)C1)c1cn(-c2cccnc2)nc1Cl (stereo not drawn) [FA44, N-(3-chloro-1-(pyridin-3-yl)-1H-pyrazol-4-yl)-1-(3-cyanopropanoyl)-N-ethylpiperidine-3-carboxamide]	80 to 100	80 to 100		
CCN(C(=O)CCCN1CCOC1=O)c1cn(-c2cccnc2)nc1Cl [FA34, N-(3-Chloro-1-(pyridin-3-yl)-1H-pyrazol-4-yl)-N-ethyl-4-(2-oxooxazolidin-3-yl)butanamide]	80 to 100	80 to 100		
CCN(C(=O)CC/C(=N/OCc1ccc(C(F)(F)F)nc1)c1cccs1)c1cn(-c2cccnc2)nc1Cl [FA37, (Z)-N-(3-Chloro-1-(pyridin-3-yl)-1H-pyrazol-4-yl)-N-ethyl-4-(thiophen-2-yl)-4-(((6-(trifluoromethyl)pyridin-3-yl)methoxy)imino)butanamide]	0 to 80	80 to 100		
CCN(C(=O)CCC(=O)NCc1ccncc1)c1cn(-c2cccnc2)nc1Cl [Compound F115, N1-(3-Chloro-1-(pyridin-3-yl)-1H-pyrazol-4-yl)-N1-ethyl-N4-(pyridin-4-ylmethyl)succinamide]	0 to 80	80 to 100		
CCN(C(=O)CCN(CC(F)F)C(=O)C1CC1(F)F)c1cn(-c2cccnc2)nc1Cl (stereo not drawn) [Compound F34, N-(3-((3-chloro-1-(pyridin-3-yl)-1H-pyrazol-4-yl)(ethyl)amino)-3-oxopropyl)-N-(2,2-difluoroethyl)-2,2-difluorocyclopropanecarboxamide]	0 to 80	80 to 100		
CCN(C(=O)CN1CCOC1=O)c1cn(-c2cccnc2)nc1Cl [Compound F48, N-(3-Chloro-1-(pyridin-3-yl)-1H-pyrazol-4-yl)-N-ethyl-2-(2-oxooxazolidin-3-yl)acetamide]	80 to 100	80 to 100		
CCN(C(=O)CCN(C)C(=O)OC(C)(C)C)c1cn(-c2cccnc2)nc1Cl [Compound F52, tert-Butyl (3-((3-chloro-1-(pyridin-3-yl)-1H-pyrazol-4-yl)(ethyl)amino)-3-oxopropyl)(methyl) carbamate]			80 to 100	80 to 100
CCN(C(=O)CC1CCN(CCC2CC2(F)F)C1=O)c1cn(-c2cccnc2)nc1Cl (stereo not drawn) [FA64, N-(3-Chloro-1-(pyridin-3-yl)-1H-pyrazol-4-yl)-2-(1-(2-(2,2-difluorocyclopropyl)ethyl)-2-oxopyrrolidin-3-yl)-N-ethylacetamide]	80 to 100	80 to 100		
CCN(C(=O)CCC(=O)N(C)CCC(F)(F)F)c1cn(-c2cccnc2)nc1Cl [Compound F108, N1-(3-chloro-1-(pyridin-3-yl)-1H-pyrazol-4-yl)-N1-ethyl-N4-methyl-N4-(3,3,3-trifluoropropyl)succinamide]	80 to 100	80 to 100		
CCN(C(=O)CCCC1CN(Cc2ccc(C(F)(F)F)cc2)C1=O)c1cn(-c2cccnc2)nc1Cl (stereo not drawn) [Compound F127, N-(3-Chloro-1-(pyridin-3-yl)-1H-pyrazol-4-yl)-N-ethyl-4-(2-oxo-1-(4-(trifluoromethyl)benzyl)azetidin-3-yl)butanamide]	0 to 80	80 to 100		
CCN(C(=O)C(C)N(C)C(=O)CC(F)(F)F)c1cn(-c2cccnc2)nc1Cl (stereo not drawn) [Compound F66, N-(1-((3-Chloro-1-(pyridin-3-yl)-1H-pyrazol-4-yl)(ethyl)amino)-1-oxopropan-2-yl)-3,3,3-trifluoro-N-methylpropanamide]	80 to 100	80 to 100		
CCN(C(=O)CCNC(=O)CC(C)C(F)(F)F)c1cn(-c2cccnc2)nc1Cl (stereo not drawn) [Compound F28, N-(3-((3-Chloro-1-(pyridin-3-yl)-1H-pyrazol-4-yl)(ethyl)amino)-3-oxopropyl)-4,4,4-trifluoro-3-methylbutanamide]	80 to 100	80 to 100		
CCN(C(=O)C1CCN(C(=O)CCC(F)(F)F)C1)c1cn(-c2cccnc2)nc1Cl (stereo not drawn) [FA10, N-(3-Chloro-1-(pyridin-3-yl)-1H-pyrazol-4-yl)-N-ethyl-1-(4,4,4-trifluorobutanoyl)pyrrolidine-3-carboxamide]	80 to 100	80 to 100		
CON=C(C)CCC(=O)N(C)c1cn(-c2cccnc2)nc1Cl (mixture of isomers) [Compound F60, (E/Z)-N-(3-Chloro-1-(pyridin-3-yl)-1H-pyrazol-4-yl)-4-(methoxyimino)-N-methylpentanamide]	80 to 100	80 to 100		
CCN(C(=O)CCN(C)C(C)=O)c1cn(-c2cccnc2)nc1Cl [Compound F64, N-(3-chloro-1-(pyridin-3-yl)-1H-pyrazol-4-yl)-N-ethyl-3-(N-methylacetamido) propanamide]	80 to 100	80 to 100		
CCN(C(=O)CC/C(=N/OCC1CC(F)(F)C1)c1cccs1)c1cn(-c2cccnc2)nc1Cl [FA31, (Z)-N-(3-Chloro-1-(pyridin-3-yl)-1H-pyrazol-4-yl)-4-(((3,3-difluorocyclobutyl)methoxy)imino)-N-ethyl-4-(thiophen-2-yl)butanamide]	< 0	0 to 80		
CCN(C(=O)CC/C(C)=N/OCCCC(F)(F)F)c1cn(-c2cccnc2)nc1Cl [FA19, (E/Z)-N-(3-Chloro-1-(pyridin-3-yl)-1H-pyrazol-4-yl)-N-ethyl-4-((4,4,4-trifluorobutoxy)imino) pentanamide]	0 to 80	80 to 100		
CCN(C(=O)Cn1ccccc1=O)c1cn(-c2cccnc2)nc1Cl [Compound F122, N-(3-Chloro-1-(pyridin-3-yl)-1H-pyrazol-4-yl)-N-ethyl-2-(2-oxopyridin-1(2H)-yl)acetamide]	0 to 80	80 to 100		
CCN(C(=O)CCC(=O)NCC(F)(F)F)c1cn(-c2cccnc2)nc1Cl [Compound F67, N1-(3-Chloro-1-(pyridin-3-yl)-1H-pyrazol-4-yl)-N1-ethyl-N4-(2,2,2-trifluoroethyl)succinamide]	80 to 100	80 to 100		
CCN(C(=O)C1CCN(C(C)=O)C1)c1cn(-c2cccnc2)nc1Cl (stereo not drawn) [Compound P20, 1-Acetyl-N-(3-chloro-1-(pyridin-3-yl)-1H-pyrazol-4-yl)-N-ethylpyrrolidine-3-carboxamide]	80 to 100	0 to 80		
CCN1CC(CCCC(=O)N(CC)c2cn(-c3cccnc3)nc2Cl)C1=O (stereo not drawn) [Compound F81, N-(3-Chloro-1-(pyridin-3-yl)-1H-pyrazol-4-yl)-N-ethyl-4-(1-ethyl-2-oxoazetidin-3-yl)butanamide]	80 to 100	80 to 100		
C#CCN(C(=O)CN(C)C(=O)OC(C)(C)C)c1cn(-c2cccnc2)nc1Cl [Compound F23, tert-Butyl (2-((3-chloro-1-(pyridin-3-yl)-1H-pyrazol-4-yl)(prop-2-yn-1-yl)amino)-2-oxoethyl)(methyl) carbamate]			0 to 80	80 to 100
CCN(C(=O)CCNC(=O)/C=C/C(F)(F)F)c1cn(-c2cccnc2)nc1Cl [Compound F65, (E)-N-(3-((3-Chloro-1-(pyridin-3-yl)-1H-pyrazol-4-yl)(ethyl)amino)-3-oxopropyl)-4,4,4-trifluorobut-2-enamide]	80 to 100	80 to 100		
CCN(C(=O)CCC(=O)CCC(F)(F)F)c1cn(-c2cccnc2)nc1Cl [FA76, N-(3-Chloro-1-(pyridin-3-yl)-1H-pyrazol-4-yl)-N-ethyl-7,7,7-trifluoro-4-oxoheptanamide]	0 to 80	80 to 100		
CCN(C(=O)CCC(=O)NCC1CCCCC1)c1cn(-c2cccnc2)nc1Cl [Compound F15, N1-(3-Chloro-1-(pyridin-3-yl)-1H-pyrazol-4-yl)-N4-(cyclohexylmethyl)-N1-ethylsuccinamide]	0 to 80	80 to 100		
CCN(C(=O)CCl)c1cn(-c2cccnc2)nc1Cl [CA2, 2-Chloro-N-[3-chloro-1-(3-pyridyl)pyrazol-4-yl]-N-ethyl-acetamide]	0 to 80	80 to 100		
CCN(C(=O)C1CCCN(C(=O)C(F)(F)F)C1)c1cn(-c2cccnc2)nc1Cl (stereo not drawn) [FA41, N-(3-Chloro-1-(pyridin-3-yl)-1H-pyrazol-4-yl)-N-ethyl-1-(2,2,2-trifluoroacetyl)piperidine-3-carboxamide]	80 to 100	0 to 80		
